SMILES strings stand for the structures. Structures can show the parent of a compound that is named as a salt.

The term IC50 denotes the midpoint of a concentration-inhibition curve.

PAPD5 enzyme, sequence (Q8NDF8 whole entry): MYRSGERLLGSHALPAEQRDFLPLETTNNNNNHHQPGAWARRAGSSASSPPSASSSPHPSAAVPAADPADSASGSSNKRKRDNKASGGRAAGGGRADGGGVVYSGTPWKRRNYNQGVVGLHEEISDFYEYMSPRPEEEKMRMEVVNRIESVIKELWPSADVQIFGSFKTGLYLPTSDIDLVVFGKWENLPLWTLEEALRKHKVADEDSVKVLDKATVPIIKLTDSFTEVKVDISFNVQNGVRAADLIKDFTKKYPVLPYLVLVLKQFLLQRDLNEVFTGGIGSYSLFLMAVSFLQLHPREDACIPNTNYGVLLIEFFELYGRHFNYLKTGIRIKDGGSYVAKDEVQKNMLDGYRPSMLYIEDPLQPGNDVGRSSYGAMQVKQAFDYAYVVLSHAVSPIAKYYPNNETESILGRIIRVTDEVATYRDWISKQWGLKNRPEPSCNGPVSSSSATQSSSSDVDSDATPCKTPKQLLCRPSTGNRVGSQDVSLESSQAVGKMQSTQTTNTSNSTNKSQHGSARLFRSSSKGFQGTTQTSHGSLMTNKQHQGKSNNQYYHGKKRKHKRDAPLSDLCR

The assay addresses PAPD5 enzyme (Homo sapiens, UniProt Q8NDF8). The experiment in a line: PAPD5 assay (AMP incorporation onto 3'-terminus of RNA substrate, fluorescence quench). It is filed as biochemical. The following applies: PAPD5 protein 0.3 nM, ATP 50 μM, 30 minutes preincubation, room temperature; read-out: Potency PAPD5 IC50. Summed up:
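Enzyme at 0.3 nM with 50 μM ATP, pH 7.3 HEPES buffer, preincubated with compound 30 minutes at room temperature; 5 nM 5′-fluorescein RNA substrate and 20 nM TAMRA quench probe then added. Initial rates from kinetic fluorescein decrease over ~90 minutes; IC50 by four-parameter fit.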
For `Cn1cnc(Cn2cc(C(=O)O)c(=O)c3cc(Cl)c(N4Cc5cccnc5C4)cc32)c1` [Example 131, 6-chloro-7-(5,7-dihydro-6H-pyrrolo[3,4-b]pyridin-6-yl)-1-((1-methyl-1H-imidazol-4-yl)methyl)-4-oxo-1,4-dihydroquinoline-3-carboxylic acid], the IC50 was at most 1000 nM. Under `CC(=O)Nc1cc(C)c(-n2cc(C(=O)O)c(=O)c3cc(Cl)c(N4Cc5cccnc5C4)cc32)cn1` [Example 81, 1-(6-acetamido-4-methylpyridin-3-yl)-6-chloro-7-(5,7-dihydro-6H-pyrrolo[3,4-b]pyridin-6-yl)-4-oxo-1,4-dihydroquinoline-3-carboxylic acid] stands at most 1000 nM. As to `Cc1cc(NC(=O)C(C)C)ncc1-n1cc(C(=O)O)c(=O)c2cc(Cl)c(N3Cc4cccnc4C3)cc21` [Example 83, 6-chloro-7-(5,7-dihydro-6H-pyrrolo[3,4-b]pyridin-6-yl)-1-(6-isobutyramido-4-methylpyridin-3-yl)-4-oxo-1,4-dihydroquinoline-3-carboxylic acid], the IC50 is at most 1000 nM.

Consider `Cc1cc(NC(=O)OC(C)(C)C)ncc1-n1cc(C(=O)O)c(=O)c2cc(F)c(N3CCc4ccccc4C3)cc21` [Example 184, 1-(6-((tert-butoxycarbonyl)amino)-4-methylpyridin-3-yl)-7-(3,4-dihydroisoquinolin-2(1H)-yl)-6-fluoro-4-oxo-1,4-dihydroquinoline-3-carboxylic acid], for which the IC50 is at most 1000 nM.

Turning to `CCOC(=O)c1cn(-c2ccc(N)nc2)c2cc(N3Cc4cccnc4C3)c(Cl)cc2c1=O` [Example 89], the 50% inhibitory concentration (IC50) is at most 1000 nM.

In the case of `Cc1cc(NC(=O)C2CC2)ncc1-n1cc(C(=O)O)c(=O)c2cc(Cl)c(N3Cc4cccnc4C3)cc21` [Example 114, 6-chloro-1-(6-(cyclopropanecarboxamido)-4-methylpyridin-3-yl)-7-(5,7-dihydro-6H-pyrrolo[3,4-b]pyridin-6-yl)-4-oxo-1,4-dihydroquinoline-3-carboxylic acid], the IC50 was at most 1000 nM. Under `COCCN(C)c1ccn(-c2cc3c(cc2Cl)c(=O)c(C(=O)O)cn3-c2ccc(N)nc2)n1` [Example 94, 1-(6-aminopyridin-3-yl)-6-chloro-7-(3-((2-methoxyethyl)(methyl)amino)-1H-pyrazol-1-yl)-4-oxo-1,4-dihydroquinoline-3-carboxylic acid] stands at most 1000 nM; under `CCCc1cc(N)ncc1-n1cc(C(=O)O)c(=O)c2cc(Cl)c(N3Cc4cccnc4C3)cc21` [Example 199, 1-(6-amino-4-propylpyridin-3-yl)-6-chloro-7-(5,7-dihydro-6H-pyrrolo[3,4-b]pyridin-6-yl)-4-oxo-1,4-dihydroquinoline-3-carboxylic acid], at most 1000 nM; under `CCOc1cc2c(=O)c(C(=O)O)cn(-c3cnc(N)cc3C)c2cc1N1Cc2cccnc2C1` [Example 144, 1-(6-amino-4-methylpyridin-3-yl)-7-(5,7-dihydro-6H-pyrrolo[3,4-b]pyridin-6-yl)-6-ethoxy-4-oxo-1,4-dihydroquinoline-3-carboxylic acid], at most 1000 nM.

For the compound `CN(C)CCOc1ccc(-n2cc(C(=O)O)c(=O)c3cc(C#N)c(N4Cc5cccnc5C4)cc32)cn1` [Example 59, 6-cyano-7-(5,7-dihydro-6H-pyrrolo[3,4-b]pyridin-6-yl)-1-(6-(2-(dimethylamino)ethoxy)pyridin-3-yl)-4-oxo-1,4-dihydroquinoline-3-carboxylic acid hydrochloride], the IC50 is at most 1000 nM. `CNc1cc(C)c(-n2cc(C(=O)O)c(=O)c3cc(Cl)c(N4Cc5cccnc5C4)nc32)cn1` [Example 170, 6-chloro-7-(5,7-dihydro-6H-pyrrolo[3,4-b]pyridin-6-yl)-1-(4-methyl-6-(methylamino)pyridin-3-yl)-4-oxo-1,4-dihydro-1,8-naphthyridine-3-carboxylic acid]: the IC50 was at most 1000 nM.

The values above are taken from patent publication US20240376100A1 (Redona Therapeutics, Inc., priority 2021, published 2024).
